# Measured values as given in ChEMBL document CHEMBL1132898, “COBRA-1, a rationally-designed epoxy-THF containing compound with potent tubulin depolymerizing activity as a novel anticancer agent” (2000).
# Active and inactive are the calls of the source. The calls are words filed in the database; no cut-off is given here.
# Key:
# Homo sapiens = species: Homo sapiens; experiment: Concentration for inhibition of proliferation of BT-20 by impairing the mitotic spindle assembly; Range 1-10 uM; assay type: functional
# BT-20 = experiment: Concentration of compound that increased the level of c-jun mRNA expression in BT-20 breast cancer cells; assay type: functional, cell-based; settings: Homo sapiens
# NALM-6 [1] = experiment: Compound (10 uM) was tested for its ability to kill clonogenic NALM-6 cells; assay type: functional, Homo sapiens
# NALM-6 [2] = experiment: Compound (100 uM) was tested for its ability to kill clonogenic NALM-6 leukemia cells at 100 uM; assay type: functional, Homo sapiens
# NALM-6 [3] = experiment: Cytotoxic activity (<10 uM) against clonogenic NALM-6 leukemia using standard in vitro clonogenic assay; No effect; assay type: functional, cell-based; settings: Homo sapiens
# PC-3 [4] = experiment: Compound (10 uM) was tested for its ability to kill clonogenic PC-3 cells; assay type: functional, Homo sapiens
# PC-3 [5] = experiment: Compound (100 uM) was tested for its ability to kill clonogenic PC-3 cells at 100 uM; assay type: functional, Homo sapiens
# PC-3 [6] = experiment: Cytotoxic activity (<10 uM) against PC-3 prostate cancer cells using standard in vitro clonogenic assay; No effect; assay type: functional, cell-based; settings: Homo sapiens
# U373 MG [7] = experiment: Concentration of compound that increased the level of c-jun mRNA expression in U373 glioblastoma cells; assay type: functional, cell-based; settings: Homo sapiens; U-373MG ATCC
# [8] = molecular target: Tubulin alpha chain (Sus scrofa) (UniProt P02550); experiment: Compound was tested for tubulin polymerization in presence of GTP by using cell free tubulin turbidity assay; Active; assay type: functional
# U373 MG [9] = experiment: Concentration for inhibition of proliferation of U373 by impairing the mitotic spindle assembly at a concentration; Range 1-10 uM; assay type: functional, cell-based; settings: Homo sapiens; U-373MG ATCC
# Chain of Tubulin alpha chain (Sus scrofa) (P02550 whole entry, looked up): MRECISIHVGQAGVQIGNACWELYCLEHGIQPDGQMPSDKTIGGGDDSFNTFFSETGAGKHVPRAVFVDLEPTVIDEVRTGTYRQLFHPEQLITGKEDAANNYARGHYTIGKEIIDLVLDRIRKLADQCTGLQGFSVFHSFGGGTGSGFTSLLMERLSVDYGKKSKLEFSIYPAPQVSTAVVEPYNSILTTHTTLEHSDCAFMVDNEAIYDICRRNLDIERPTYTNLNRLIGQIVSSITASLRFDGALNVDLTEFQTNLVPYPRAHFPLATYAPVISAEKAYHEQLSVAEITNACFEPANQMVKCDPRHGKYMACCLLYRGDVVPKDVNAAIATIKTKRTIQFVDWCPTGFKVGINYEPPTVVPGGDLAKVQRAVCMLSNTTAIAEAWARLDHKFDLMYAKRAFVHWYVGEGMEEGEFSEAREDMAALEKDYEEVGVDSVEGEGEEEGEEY
structure (smiles),measurement,setting,value
C=CCC[C@H](O)[C@H]1CC[C@H]([C@H](O)CCCCCCCCCCCC)O1,Concentration,Homo sapiens,10 µM
same,Concentration,BT-20,250 µM
same,Cell kill,NALM-6 [1],99%
same,Cell kill,NALM-6 [2],>99.9%
same,Concentration,NALM-6 [3],inactive
same,Cell kill,PC-3 [4],91%
same,Cell kill,PC-3 [5],>99.9%
same,Concentration,PC-3 [6],inactive
same,Concentration,U373 MG [7],250 µM
same,inhibition,[8],Active
same,Concentration,U373 MG [9],10 µM
